We go through two compounds from ChEMBL document CHEMBL4270553, “Synthesis and anticancer activity of new dihydropyrimidinone derivatives” (Eur J Med Chem, 2018).

Structures are written as SMILES.

The first test deals with UACC-62. Description: Antiproliferative activity against human UACC62 cells assessed as growth inhibition at 10 uM after 48 hrs by sulforhodamine B assay relative to control. The conditions noted are these: UACC-62, 48 h, read-out: GI. Type of test: functional. A general note: In SRB staining, fixed cells bind dye roughly in proportion to their protein.
On to `CCOC(=O)C1=C(CSc2nnc(-c3ccccc3)o2)N(C)C(=O)NC1c1ccccc1` (centres undefined), for which the inhibition of growth at 10 µM amounted to 10%.
Same read-out and setting: next, `CCOC(=O)C1=C(CSC2=NCCS2)N(C)C(=O)NC1c1ccccc1` (centres undefined): 27%.

A further test concerns LOX IMVI. Description: Antiproliferative activity against human LOXIMVI cells assessed as growth inhibition at 10 uM after 48 hrs by sulforhodamine B assay relative to control. Type of test: functional. The conditions noted are these: read-out: GI.
On to `CCOC(=O)C1=C(CSc2nnc(-c3ccccc3)o2)N(C)C(=O)NC1c1ccccc1` (centres undefined), for which the inhibition of growth at 10 µM worked out at 27%.
Still for that read-out and setting: next, `CCOC(=O)C1=C(CSC2=NCCS2)N(C)C(=O)NC1c1ccccc1` (centres undefined): 16%.

The subject of a further test is SK-MEL-5. Description: Antiproliferative activity against human SK-MEL-5 cells assessed as growth inhibition at 10 uM after 48 hrs by sulforhodamine B assay relative to control. Format: functional. Particulars: SK-MEL-5, 48 h, read-out: GI.
`CCOC(=O)C1=C(CSc2nnc(-c3ccccc3)o2)N(C)C(=O)NC1c1ccccc1` (centres undefined): the inhibition of growth at 10 µM came out at 10%.
Same read-out and setting: next, `CCOC(=O)C1=C(CSC2=NCCS2)N(C)C(=O)NC1c1ccccc1` (centres undefined): 4%.

The subject of another test is A549. Description: Antiproliferative activity against human A549/ATCC cells assessed as growth inhibition at 10 uM after 48 hrs by sulforhodamine B assay relative to control. Type of test: functional. The conditions noted are these: A549, 48 h, read-out: GI.
For `CCOC(=O)C1=C(CSc2nnc(-c3ccccc3)o2)N(C)C(=O)NC1c1ccccc1` (centres undefined), the inhibition of growth at 10 µM came out at 5%.
Still for that read-out and setting: as for `CCOC(=O)C1=C(CSC2=NCCS2)N(C)C(=O)NC1c1ccccc1` (centres undefined), the figure is 16%.

Another test deals with MOLT-4. Description: Antiproliferative activity against human MOLT4 cells assessed as growth inhibition at 10 uM after 48 hrs by sulforhodamine B assay relative to control. Format: functional. Particulars: MOLT-4, 48 h, read-out: GI.
On to `CCOC(=O)C1=C(CSc2nnc(-c3ccccc3)o2)N(C)C(=O)NC1c1ccccc1` (centres undefined), for which the inhibition of growth at 10 µM is 29%.
The same measure, in the same setting: next, `CCOC(=O)C1=C(CSC2=NCCS2)N(C)C(=O)NC1c1ccccc1` (centres undefined): 19%.

The test system of a further test is HCT-15. Description: Antiproliferative activity against human HCT15 cells assessed as growth inhibition at 10 uM after 48 hrs by sulforhodamine B assay relative to control. Format: functional. Particulars: HCT-15, 48 h, read-out: GI.
Regarding `CCOC(=O)C1=C(CSc2nnc(-c3ccccc3)o2)N(C)C(=O)NC1c1ccccc1` (centres undefined), the inhibition of growth at 10 µM was 15%.
In the case of `CCOC(=O)C1=C(CSC2=NCCS2)N(C)C(=O)NC1c1ccccc1` (centres undefined), the inhibition of growth at 10 µM was 28%.

The subject of a further test is MDA-MB-468. Description: Antiproliferative activity against human MDA-MB-468 cells assessed as growth inhibition at 10 uM after 48 hrs by sulforhodamine B assay relative to control. Format: functional. Particulars: MDA-MB-468, 48 h, read-out: GI.
As to `CCOC(=O)C1=C(CSc2nnc(-c3ccccc3)o2)N(C)C(=O)NC1c1ccccc1` (centres undefined), the inhibition of growth at 10 µM was found to be 17%.
The same measure, in the same setting: as for `CCOC(=O)C1=C(CSC2=NCCS2)N(C)C(=O)NC1c1ccccc1` (centres undefined), the figure is 11%.

For another test, the system named is T47D. Description: Antiproliferative activity against human T47D cells assessed as growth inhibition at 10 uM after 48 hrs by sulforhodamine B assay relative to control. Type of test: functional. The conditions noted are these: read-out: GI.
With `CCOC(=O)C1=C(CSc2nnc(-c3ccccc3)o2)N(C)C(=O)NC1c1ccccc1` (centres undefined), the inhibition of growth at 10 µM was 25%.
Same read-out and setting: next, `CCOC(=O)C1=C(CSC2=NCCS2)N(C)C(=O)NC1c1ccccc1` (centres undefined): 37%.

The next test relates to HL-60(TB). Description: Antiproliferative activity against human HL-60(TB) cells assessed as growth inhibition at 10 uM after 48 hrs by sulforhodamine B assay relative to control. Format: functional. The conditions noted are these: HL-60, 48 h, read-out: GI.
As for `CCOC(=O)C1=C(CSc2nnc(-c3ccccc3)o2)N(C)C(=O)NC1c1ccccc1` (centres undefined), the inhibition of growth at 10 µM was 11%.
Same read-out and setting: next, `CCOC(=O)C1=C(CSC2=NCCS2)N(C)C(=O)NC1c1ccccc1` (centres undefined): 10%.

In the next test the test system is NCI-H322M. Description: Antiproliferative activity against human NCI-H322M cells assessed as growth inhibition at 10 uM after 48 hrs by sulforhodamine B assay relative to control. Format: functional. The conditions noted are these: read-out: GI.
Take `CCOC(=O)C1=C(CSc2nnc(-c3ccccc3)o2)N(C)C(=O)NC1c1ccccc1` (centres undefined): the inhibition of growth at 10 µM amounted to 15%.
Same read-out and setting: next, `CCOC(=O)C1=C(CSC2=NCCS2)N(C)C(=O)NC1c1ccccc1` (centres undefined): 27%.

For another test, the system named is UO-31. Description: Antiproliferative activity against human UO31 cells assessed as growth inhibition at 10 uM after 48 hrs by sulforhodamine B assay relative to control. Format: functional. The conditions noted are these: UO-31, 48 h, read-out: GI.
With `CCOC(=O)C1=C(CSc2nnc(-c3ccccc3)o2)N(C)C(=O)NC1c1ccccc1` (centres undefined), the inhibition of growth at 10 µM came to 34%.
Same read-out and setting: as for `CCOC(=O)C1=C(CSC2=NCCS2)N(C)C(=O)NC1c1ccccc1` (centres undefined), the figure is 21%.

For a further test, the system named is NCI-H522. Description: Antiproliferative activity against human NCI-H522 cells assessed as growth inhibition at 10 uM after 48 hrs by sulforhodamine B assay relative to control. Format: functional. Particulars: NCI-H522, 48 h, read-out: GI.
Consider `CCOC(=O)C1=C(CSc2nnc(-c3ccccc3)o2)N(C)C(=O)NC1c1ccccc1` (centres undefined), for which the inhibition of growth at 10 µM worked out at 16%.
The same measure, in the same setting: as for `CCOC(=O)C1=C(CSC2=NCCS2)N(C)C(=O)NC1c1ccccc1` (centres undefined), the figure is 19%.

Another test has as its system SF-295. Description: Antiproliferative activity against human SF295 cells assessed as growth inhibition at 10 uM after 48 hrs by sulforhodamine B assay relative to control. The conditions noted are these: SF-295, 48 h, read-out: GI. Format: functional.
Take `CCOC(=O)C1=C(CSc2nnc(-c3ccccc3)o2)N(C)C(=O)NC1c1ccccc1` (centres undefined): the inhibition of growth at 10 µM worked out at 14%.
Still for that read-out and setting: next, `CCOC(=O)C1=C(CSC2=NCCS2)N(C)C(=O)NC1c1ccccc1` (centres undefined): 10%.

The subject of the next test is NCI/ADR-RES. Description: Antiproliferative activity against human NCI/ADR-RES cells assessed as growth inhibition at 10 uM after 48 hrs by sulforhodamine B assay relative to control. Format: functional. The conditions noted are these: read-out: GI.
In the case of `CCOC(=O)C1=C(CSc2nnc(-c3ccccc3)o2)N(C)C(=O)NC1c1ccccc1` (centres undefined), the inhibition of growth at 10 µM was determined as 15%.
Same read-out and setting: next, `CCOC(=O)C1=C(CSC2=NCCS2)N(C)C(=O)NC1c1ccccc1` (centres undefined): 15%.

A further test relates to K562. Description: Antiproliferative activity against human K562 cells assessed as growth inhibition at 10 uM after 48 hrs by sulforhodamine B assay relative to control. Type of test: functional. Particulars: K562, 48 h, read-out: GI.
`CCOC(=O)C1=C(CSc2nnc(-c3ccccc3)o2)N(C)C(=O)NC1c1ccccc1` (centres undefined): the inhibition of growth at 10 µM was 34%.
For `CCOC(=O)C1=C(CSC2=NCCS2)N(C)C(=O)NC1c1ccccc1` (centres undefined), the inhibition of growth at 10 µM came out at 24%.

A further test deals with HCT-116. Description: Antiproliferative activity against human HCT116 cells assessed as growth inhibition at 10 uM after 48 hrs by sulforhodamine B assay relative to control. Format: functional. The conditions noted are these: HCT-116, 48 h, read-out: GI.
In the case of `CCOC(=O)C1=C(CSc2nnc(-c3ccccc3)o2)N(C)C(=O)NC1c1ccccc1` (centres undefined), the inhibition of growth at 10 µM stood at 19%.
For the compound `CCOC(=O)C1=C(CSC2=NCCS2)N(C)C(=O)NC1c1ccccc1` (centres undefined), the inhibition of growth at 10 µM came to 10%.

For a further test, the system named is PC-3. Description: Antiproliferative activity against human PC3 cells assessed as growth inhibition at 10 uM after 48 hrs by sulforhodamine B assay relative to control. Format: functional. The conditions noted are these: PC-3, 48 h, read-out: GI.
Take `CCOC(=O)C1=C(CSc2nnc(-c3ccccc3)o2)N(C)C(=O)NC1c1ccccc1` (centres undefined): the inhibition of growth at 10 µM was found to be 20%.

A further test relates to ACHN. Description: Antiproliferative activity against human ACHN cells assessed as growth inhibition at 10 uM after 48 hrs by sulforhodamine B assay relative to control. Format: functional. Particulars: read-out: GI.
For `CCOC(=O)C1=C(CSc2nnc(-c3ccccc3)o2)N(C)C(=O)NC1c1ccccc1` (centres undefined), the inhibition of growth at 10 µM stood at 3%.
Same read-out and setting: as for `CCOC(=O)C1=C(CSC2=NCCS2)N(C)C(=O)NC1c1ccccc1` (centres undefined), the figure is 17%.

The next test has as its system SR. Description: Antiproliferative activity against human SR cells assessed as growth inhibition at 10 uM after 48 hrs by sulforhodamine B assay relative to control. Type of test: functional. Particulars: read-out: GI.
As to `CCOC(=O)C1=C(CSc2nnc(-c3ccccc3)o2)N(C)C(=O)NC1c1ccccc1` (centres undefined), the inhibition of growth at 10 µM is 16%.
`CCOC(=O)C1=C(CSC2=NCCS2)N(C)C(=O)NC1c1ccccc1` (centres undefined): the inhibition of growth at 10 µM was 40%.

The next test deals with CAKI-1. Description: Antiproliferative activity against human Caki1 cells assessed as growth inhibition at 10 uM after 48 hrs by sulforhodamine B assay relative to control. Particulars: CAKI-1, 48 h, read-out: GI. Format: functional.
For `CCOC(=O)C1=C(CSc2nnc(-c3ccccc3)o2)N(C)C(=O)NC1c1ccccc1` (centres undefined), the inhibition of growth at 10 µM came to 14%.
Consider `CCOC(=O)C1=C(CSC2=NCCS2)N(C)C(=O)NC1c1ccccc1` (centres undefined), for which the inhibition of growth at 10 µM is 24%.

In the next test the test system is OVCAR-4. Description: Antiproliferative activity against human OVCAR4 cells assessed as growth inhibition at 10 uM after 48 hrs by sulforhodamine B assay relative to control. Type of test: functional. Particulars: OVCAR-4, 48 h, read-out: GI.
As for `CCOC(=O)C1=C(CSc2nnc(-c3ccccc3)o2)N(C)C(=O)NC1c1ccccc1` (centres undefined), the inhibition of growth at 10 µM was 14%.
The same measure, in the same setting: next, `CCOC(=O)C1=C(CSC2=NCCS2)N(C)C(=O)NC1c1ccccc1` (centres undefined): 16%.

For another test, the system named is MCF7. Description: Antiproliferative activity against human MCF7 cells assessed as growth inhibition at 10 uM after 48 hrs by sulforhodamine B assay relative to control. Type of test: functional. Particulars: MCF7, 48 h, read-out: GI.
As for `CCOC(=O)C1=C(CSc2nnc(-c3ccccc3)o2)N(C)C(=O)NC1c1ccccc1` (centres undefined), the inhibition of growth at 10 µM turned out to be 11%.
Same read-out and setting: as for `CCOC(=O)C1=C(CSC2=NCCS2)N(C)C(=O)NC1c1ccccc1` (centres undefined), the figure is 19%.

The subject of the next test is NCI-H460. Description: Antiproliferative activity against human NCI-H460 cells assessed as growth inhibition at 10 uM after 48 hrs by sulforhodamine B assay relative to control. Type of test: functional. The conditions noted are these: NCI-H460, 48 h, read-out: GI.
Regarding `CCOC(=O)C1=C(CSC2=NCCS2)N(C)C(=O)NC1c1ccccc1` (centres undefined), the inhibition of growth at 10 µM is 2%.
